# Source: patent US20210290784A1, “POSITRON EMISSION TOMOGRAPHY (PET) RADIOTRACERS FOR IMAGING MACROPHAGE COLONY-STIMULATING FACTOR 1 RECEPTOR (CSF1R) IN NEUROINFLAMMATION” (The Johns Hopkins University, priority 2018, published 2021)
# Assays:
# [1] = Plasma free fraction, centrifree ultrafiltration; type: in vitro ADME; settings: baboon plasma, not affected by LPS or LPS and blocking
# [2] = biological target: T1, CSF1R (Mus musculus, UniProt P09581); experiment: Brain uptake in microglia-depleted vs control mice; type: in vivo; parameters: from tissue; host or cells: brain of living CD-1, C57BL/6J, transgenic APP (AD model), EAE and CSF1R KO mice; settings: whole brain % SUV, 45 min, PLX3397 chow 290 mg/kg for 3 weeks
# T1 sequence (P09581 20-977): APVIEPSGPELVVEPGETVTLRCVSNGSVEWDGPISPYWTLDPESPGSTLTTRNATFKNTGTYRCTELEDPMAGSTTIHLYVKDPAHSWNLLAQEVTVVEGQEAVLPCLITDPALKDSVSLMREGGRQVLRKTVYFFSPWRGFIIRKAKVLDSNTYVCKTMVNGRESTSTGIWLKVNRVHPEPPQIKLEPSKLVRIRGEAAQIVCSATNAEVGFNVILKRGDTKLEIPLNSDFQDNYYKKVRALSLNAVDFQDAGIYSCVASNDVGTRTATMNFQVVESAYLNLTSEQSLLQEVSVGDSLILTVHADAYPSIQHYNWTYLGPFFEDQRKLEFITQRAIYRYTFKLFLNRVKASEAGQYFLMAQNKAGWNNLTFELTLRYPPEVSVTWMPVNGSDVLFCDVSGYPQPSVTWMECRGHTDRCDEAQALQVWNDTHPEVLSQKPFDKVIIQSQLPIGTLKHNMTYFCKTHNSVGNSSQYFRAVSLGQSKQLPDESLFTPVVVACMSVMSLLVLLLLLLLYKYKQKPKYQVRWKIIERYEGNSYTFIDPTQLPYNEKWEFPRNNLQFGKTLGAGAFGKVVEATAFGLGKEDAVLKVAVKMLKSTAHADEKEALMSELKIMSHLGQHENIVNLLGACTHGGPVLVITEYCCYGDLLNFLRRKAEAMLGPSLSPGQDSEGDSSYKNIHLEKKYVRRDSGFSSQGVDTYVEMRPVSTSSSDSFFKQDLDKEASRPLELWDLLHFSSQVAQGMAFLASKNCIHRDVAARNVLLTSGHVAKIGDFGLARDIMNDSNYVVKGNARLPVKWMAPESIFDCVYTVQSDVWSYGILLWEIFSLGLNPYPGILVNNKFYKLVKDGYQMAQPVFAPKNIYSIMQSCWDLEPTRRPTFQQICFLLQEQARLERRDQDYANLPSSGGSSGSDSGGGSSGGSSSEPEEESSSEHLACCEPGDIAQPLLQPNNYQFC
# Procedure: Male C57BL/6J mice (22-24 g) from Charles River Laboratories were purchased. […] The control C57BL/6J mice (5 animals) were fed with standard mouse chow for 3 weeks. On the last day of treatment, all animals were sacrificed by cervical dislocation at 45 min following injection of 5.0 MBq (0.135 mCi) [^11C]CPPC [specific radioactivity=475 GBq/μmol (12.8 Ci/μmol)] in 0.2 mL saline into a lateral tail vein. […] The outcome variables were calculated as % SUV.
# [3] = biological target: T1, CSF1R; experiment: Brain uptake in intracranial LPS (i.c.-LPS) mouse model of neuroinflammation; type: in vivo; parameters: from tissue; host or cells: brain of living CD-1, C57BL/6J, transgenic APP (AD model), EAE and CSF1R KO mice; settings: i.c.-LPS mice
# Procedure: (§1) Experiment 1, FIG. 1A. […] CD1 mice were anaesthetized with avertin (250 mg/kg, IP). Peri-procedural analgesia was provided with finadine (2.5 mg/kg, SC). The coordinates for intraparenchymal injection in the right forebrain were AP −0.5 mm′ DV −2.5 mm; and ML 1.0 right of midline. The holes were drilled perpendicularly to the previously exposed skull. Sterile phosphate buffered saline (PBS) (0.5 μL) or 5 μg lipopolysaccharide (LPS, 011:B4, Calbiochem, San Diego, Calif.) in 0.5 μL PBS was injected into the brain parenchyma using a 1 μL Hamilton syringe. After injection, the needle was kept in the brain for additional 3 min and slowly removed. The incision was sealed with dental cement. […] The whole brains were removed and dissected on ice. […] The outcome variables were calculated as % SUV.
# as §1, with “2,” for “1,”, “1B.” for “1A.”, “The” for “CD1”
# [4] = biological target: T1, CSF1R; experiment: PET/CT imaging in EAE mice; type: in vivo; parameters: from tissue; host or cells: brain of living CD-1, C57BL/6J, transgenic APP (AD model), EAE and CSF1R KO mice
structure (smiles),measurement,setting,value
"[11CH3]N1CCN(c2ccc(NC(=O)c3ccc(C#N)o3)c(N3CCCCC3)c2)CC1 [[^11C]CPPC, 5-cyano-N-(4-(4-[^11C]methylpiperazin-1-yl)-2-(piperidin-1-yl)phenyl)furan-2-carboxamide]",fraction unbound,[1],0.0548 ± 0.0098
same,reduction in radiotracer uptake in microglia-depleted mouse brain vs controls,[2],14%
same,specific fraction of elevated binding vs. sham animals,[3],~50%
same,"reduction of uptake by blocking with nonradiolabeled CPPC, low dose",[3]; blocker 0.3 mg/kg IP,insignificant
same,"reduction of uptake by blocking with nonradiolabeled CPPC, higher doses",[3]; blocker 0.6 or […] IP,significantly reduced
same,brainstem uptake in EAE mice vs control animals,[4],up to twofold greater
